Assay results: paper PMC7046902, “Daphnane Diterpenoids from Trigonostemon lii and Inhibition Activities Against HIV-1” (Natural Products and Bioprospecting, 2020)
Converted amounts (≈) assume the structure as drawn.

Key:
HIV-1IIIB = test: microbe, parasite or virus in culture; assay type: cell-based; conditions: for EC50: Human immunodeficiency virus 1, 72 h, read-out: anti-HIV-1 EC50 (syncytia formation induced by HIV-1IIIB)
Experimental: (§1) In the presence of 100 μL various concentrations of compounds, C8166 cells (4 × 10^5/mL) were infected with virus (HIV-1IIIB) at a multiplicity of infection (M.O.I) of 0.06. The final volume per well was 200 μL. Control assays were performed without the testing compounds in HIV-1IIIB infected and uninfected cultures. AZT was included as positive control. After 3 days of culture, the cytopathic effect (CPE) was measured by counting the number of syncytia (multinucleated giant cell). Percentage inhibition of syncytia formation was calculated and 50% effective concentration (EC50) was calculated.
as §1, with “c. Syncytia assay. In” for “In”, “(4×10^5/mL)” for “(4 × 10^5/mL)”, “calculated ^[3].” for “calculated.”

C8166 = test: in vitro; assay type: cell-based; conditions: C8166 cells, MTT, 3 days
Experimental: (§2) Cellular toxicity of compounds was assessed by MTT method. Briefly, cells were seeded on a microtiter plate in the absence or presence of various concentrations of compounds in triplicate and incubated at 37 °C in a humid atmosphere of 5% CO2 for 3 days. Twenty microliters of MTT reagent (5 mg/mL in PBS) was added to each well, then incubated at 37 °C for 4 h, 100 μL of 50% DMF-20% SDS was added. After the formazan was dissolved completely, the plates were read on a Bio-Tek ELx 800 ELISA reader at 595 nm/630 nm (A595/630). The cytotoxic concentration that caused the reduction of viable cells by 50% (CC50) was calculated from dose–response curve.
as §2, with “b. MTT-based cytotoxicity assay. Cellular” for “Cellular”, “4h,” for “4 h,”, “595nm/630” for “595 nm/630”, “dose-response curve ^[2].” for “dose–response curve.”

[1] = target: T1, purified recombinant HIV-1 RT (Human immunodeficiency virus type 1 group M subtype B, UniProt P04585); test: RT (reverse transcriptase) assay, ELISA RT kit; assay type: biochemical; conditions: read-out: EC50, inhibition of recombinant HIV-1 RT activity (converted)
T1 construct: purified recombinant HIV-1 RT; purchased Roche
Experimental: (§3) HIV-1 RT activity was measured by ELISA RT kit (Roche) using a commercially available kit according to the protocol provided by the manufacturer. Samples were incubated with DIG-labeled-reaction mixture at 37 °C for 15 h. Anti-DIG-POD solution was added afterward followed by substrate ABTS. The absorbance at 405/490 nm (A405/490) was determined in the ELISA reader.
as §3, with “e. RT (reverse transcriptase) assay. HIV-1” for “HIV-1”, “reader ^[4].” for “reader.”

pNL4-3gp41(36G)V38A,N42T = assay type: cell-based, HIV-1; conditions: T20-resistant strain pNL4-3gp41(36G)V38A,N42T in C8166 cells
pNL4-3gp41(36G)V38E,N42S = assay type: cell-based, HIV-1; conditions: T20-resistant strain pNL4-3gp41(36G)V38E,N42S in C8166 cells
in vitro = assay type: cell-based; conditions: human; C8166 cells, MTT, 3 days; read-out: cytotoxicity CC50
Experimental: as §2
as §2, with “b. MTT-based cytotoxicity assay. Cellular” for “Cellular”, “4h,” for “4 h,”, “595nm/630” for “595 nm/630”, “dose-response curve ^[2].” for “dose–response curve.”

[2] = system: fusion of H9/HIV-1IIIB cells with uninfected C8166 cells; test: cells; conditions: Human immunodeficiency virus 1, C8166, 6 h, read-out: EC50, inhibition of fusion of H9/HIV-1IIIB cells with uninfected C8166 cells
Experimental: (§4) C8166 cells (3 × 10^4) co-cultured with 1 × 10^4 virus (HIV-1IIIB) infected H9 cells in the presence or absence of the compound with various concentrations at 37 °C in a humidified atmosphere of 5% CO2. T20 was used as positive control. After 6 h incubation, the number of syncytia was scored under an inverted microscope [18].
(§5) Co-cultivation assay. C8166 cells (3×10^4) co-cultured with 1×10^4 virus (HIV-1IIIB) infected H9 cells in the presence or absence of the compound with various concentrations at 37 °C in a humidified atmosphere of 5% CO2. Dextran sulfate (DS) was used as positive control. After 6 h incubation, the number of syncytia was scored under an inverted microscope ^[3].

[3] = system: fusion of H9/HIV-1IIIB cells with uninfected C8166 cells; conditions: 6 h
Experimental: as §4, §5

HIV-1 = conditions: cited from earlier work
[4] = C8166 cells, HIV-1IIIB, M.O.I 0.06, 3 days

Row | Molecule | anti-HIV-1 EC50 (syncytia formation induced by HIV-1IIIB) (HIV-1IIIB; [4]) | cytotoxicity CC50 (C8166) | EC50 [1] | EC50 (syncytium formation) (pNL4-3gp41(36G)V38A,N42T) | EC50 (syncytium formation) (pNL4-3gp41(36G)V38E,N42S) | EC50 (HIV-1IIIB; [4]) | CC50 (in vitro) | EC50 [2] | selectivity index CC50/EC50 (HIV-1IIIB; C8166 cells, HIV-1IIIB) | anti-HIV-1 EC50 (syncytia formation induced by HIV-1IIIB) (HIV-1IIIB; 1IIIB) | EC50, inhibition of fusion of H9/HIV-1IIIB cells with uninfected C8166 cells [3] | anti-HIV-1 EC50 (HIV-1)
1 | Cc1cn([C@H]2C[C@H](N=[N+]=[N-])[C@@H](CO)O2)c(=O)[nH]c1=O [AZT, reference compound] | 0.00508 µg/mL | 1006.69 µg/mL |  |  |  |  |  |  |  |  |  | 
2 | C=C1C=C2C3(O)C1OC(=O)C(C)CCCCCCC(C)CC(C)(O)C1(O)C4OC5(c6ccccc6)OC1C(C1OC1(CO)C3O)C2(O5)C4C (stereo not drawn) [Compound 1, Trigonolactone B] |  |  | > 439 µM | 0.0026 µg/mL (≈ 3.81 nM) | 0.0033 µg/mL (≈ 4.83 nM) | 0.00106 µg/mL (≈ 1.55 nM) | 16.5 µg/mL (≈ 24100 nM) | 0.00225 µg/mL (≈ 3.3 nM) |  |  |  | 
3 | C=C1C=C2C3(O)C1OC(=O)C(C)CCCCCCC(C)CC(O)(COC(=O)c1ccccc1O)C1(O)C4OC5(c6ccccc6)OC1C(C1OC1(CO)C3O)C2(O5)C4C (stereo not drawn) [Compound 2, Trigonolactone D] |  |  | 60.2 µM | 0.00583 µg/mL (≈ 7.12 nM) | 0.00272 µg/mL (≈ 3.32 nM) | 0.0019 µg/mL (≈ 2.32 nM) | 8.49 µg/mL (≈ 10400 nM) | 0.00462 µg/mL (≈ 5.64 nM) | 4468.42 |  |  | 
4 | C=C1C=C2C3(O)C1OC(=O)C(C)CCCCCCC(C)CC(O)(CO)C1(O)C4OC5(c6ccccc6)OC1C(C1OC1(CO)C3O)C2(O5)C4C (stereo not drawn) [Compound 3, Trigonolactone E] |  |  | > 429 µM |  | 0.00443 µg/mL (≈ 6.34 nM) | 0.00059 µg/mL (≈ 0.844 nM) | 17.5 µg/mL (≈ 25000 nM) | 0.00185 µg/mL (≈ 2.65 nM) | 29610.17 |  |  | 
5 | CC1CCCCCCC(C)C(=O)OC2C(=CCl)C=C3C2(O)C(O)C2(CO)OC2C2C4OC5(c6ccccc6)OC(C(C)C32O5)C4(O)C(C)(O)C1 (stereo not drawn) [Compound 4, Trigocherriolide B] |  |  | 278 µM |  | 0.00297 µg/mL (≈ 4.14 nM) | 0.00822 µg/mL (≈ 11.5 nM) | 14.9 µg/mL (≈ 20800 nM) | 0.00873 µg/mL (≈ 12.2 nM) | 1811.43 |  |  | 
6 | CC1CCCCCCC(C)C(=O)OC2C(=CCl)C=C3C2(O)C(O)C2(CO)OC2C2C4OC5(c6ccccc6)OC(C(C)C32O5)C4(O)C(O)(COC(=O)c2ccccc2O)C1 (stereo not drawn) [Compound 5, Trigocherriolide A] |  |  | 313 µM | 0.00343 µg/mL (≈ 4.02 nM) | 0.00288 µg/mL (≈ 3.37 nM) | 0.00287 µg/mL (≈ 3.36 nM) | 15.5 µg/mL (≈ 18200 nM) | 0.00106 µg/mL (≈ 1.24 nM) | 5407.67 |  |  | 
7 | CC1CCCCCCC(C)C(=O)OC2C(=CCl)C=C3C2(O)C(O)C2(CO)OC2C2C4OC5(c6ccccc6)OC(C(C)C32O5)C4(O)C(O)(CO)C1 (stereo not drawn) [Compound 6, Trigocheriolide E] |  |  | 261 µM | 0.00381 µg/mL (≈ 5.2 nM) | 0.00374 µg/mL (≈ 5.1 nM) | 0.0015 µg/mL (≈ 2.05 nM) | 18.3 µg/mL (≈ 24900 nM) | 0.00176 µg/mL (≈ 2.4 nM) | 12193.33 |  |  | 
8 | Enfuvirtide |  |  |  |  |  |  |  |  |  | 0.09725 µg/mL | 0.00977 µg/mL | 
9 | trigonothyrins C |  |  |  |  |  |  |  |  |  |  |  | 2.19 µg/mL
10 | trigonothyrins F |  |  |  |  |  |  |  |  |  |  |  | 0.13 µg/mL
